We go through eight compounds from patent publication EP0207599A1, “Arachidonic acid analogues” (BEECHAM GROUP PLC, priority 1985, dated 1987).

The experiment deals with Phospholipase A2 (Naja naja venom , Sigma). Description: Inhibition of phospholipase A2 activity (release of 14C-arachidonic acid from phosphatidylcholine substrate). The class given is biochemical. As to conditions: at 20µM; mean ± standard deviation of triplicate samples; 37°C, pH 8.7, CaCl2 4mM. As for the experimental part: Method For The Measurement of Inhibition of Phospholipase A2 Activity
Enzyme: Phospholipase A2 (Naja naja venom , Sigma)
Substrate: Diarachidoyl phosphatidylcholine (10.6mg) and α-1-palmitayl-2-[1-^14C]-arachidonyl phosphatidylcholine (0.5pCi; 52.9nCi/mMol) in 28ml of TrisHCl buffer = […], pH 8.7) ultrasonicated.
Assay: Incubations containing PLA2 (0.125ng) in Tris HC1 buffer (100mM, pH 8.7) and CaCl2 (4mM) were prepared on ice. Immediately prior to incubation at 37°C 5µl of DMSO or compound in DMSO were added. The final assay volume was 1.75ml. After 10 minutes incubation at 37°C 750pl of substrate was added, with mixing, and the incubation continued for a further 15 min. The reaction is terminated by placing on ice and adding 5m1 CHCl3:MeOH (2:1v/v).
The lower organic phase is remaved ahd stored under N2 at -20°C until analysed. Analysis is by 1-dimensional t.l.c. on polygram Sil G sheets in the solvent system: petroleum ether: diethyl ether: acetic acid (60:40:1, v/v). In this solvent system the phospholipid remains at the origin and the arachidonic acid has an approximate Rf. value of 0.36. The areas of interest are cut from the plates and their radioactivity determined by liquid scintillation counting.
All compounds are tested in triplicate.
Calculation: The radioactivity of the arachidonic acid is expressed as a percentage of the total dpm cut from the plate. The percentage inhibition of arachidonic acid release compared to that of the control is calculated after correction for the level of spontaneous release where: • x = % corrected mean arachidonic acid release in control • y = % corrected arachidonic acid release after inhibition [formula]
The nean of the triplicate sanples is calculated giving z ± standard deviation %.
Take “6-[2-(1-Octynyl)phenyl)hex-5-yn-1-oic acid [Example 23]”: the “Percent inhibition of phospholipase A2 at x µM concentration.” value (shortened to “Percent inhibition of phospholipase A2”) stood at 25.0± 19.0 at 20µM %. The figure for `CCCCCCC#Cc1cccc(/C=C/CCCC(=O)O)c1` [Example 5, 6-[3-(1-Octynyl)phenyl]-E-hex-5-en-1-oic acid] is 78.9± 4.7 at 20µM %; for `CCCCCC/C=C\c1ccccc1/C=C\CCC(C(=O)O)C(=O)O` [Example 15, 2-(4-[2-(Z)-1-Octenyl)phenyl-(Z)-but-3-enyl)malonic acid] it is 65.0± 17.0 at 20µM %. With `CCCCCCC#Cc1ccccc1C#CCCC(C(=O)O)C(=O)OC(C)(C)C` (centres unmarked) [Example 21, 2-(4-[2-(1-Octynyl)phenyl]-but-3-ynyl)malonic acid monotertbutyl ester], the “Percent inhibition of phospholipase A2” value stood at 62.0± 4.4 at 20µM %.

Regarding `CCCCCCC#Cc1ccccc1C#CCCC(C(=O)O)C(=O)O` [Example 13, 2-(4-[2-(1-octynyl)phenyl]-but-3-ynyl)malonic acid.], the “Percent inhibition of phospholipase A2” value came to 23.1± 17.6 at 20µM %. With “6-(2-(1-Octynyl)pheny]-E-hex-5-en-1-oic acid [Example 2]” the figure was 76.2± 13.9 at 20µM %; with `CCCCCC/C=C\c1ccccc1/C=C/CCCC(=O)O` [Example 3, 6-[2-(Z-1-Octenyl)phenyl]-E-hex-5-en-1-oic acid], 72.9± 10.3 at 20µM %; with `CCCCCC/C=C\c1ccccc1/C=C\CCCC(=O)O` [Example 25, 6-[2-((Z)-1-octenyl)phenyl]-(Z)-hex-5-en-1-oic acid], 69.8± 8.3 at 20µM %.
